Data taken from US10301264B2, “Compounds useful for treating ocular neovasculan” (The University of Nottingham, priority 2012, dated 2019).
Converted amounts (≈) assume the structure as drawn. “Also recorded” adds a separate entry of the source. Read-outs that look alike come from different tables or passages of the source.

What was measured:
[1] = tested on: SRPK1 expression in ARPE-19 cells; assay: SRPK1 expression in ARPE-19 cells (western blot); format: cell-based, human; details: 10 μM, up to six days
VEGF protein expression = assay: PanVEGF and VEGFxxxb ELISA; format: cell-based, human; details: FIG. 2C
Procedure: PanVEGF and VEGFxxxb enzyme-linked immunosorbent assay (ELISA).
One μg/ml pan-VEGF capture antibody (Duoset VEGF ELISA DY-293; R&D systems) was incubated overnight at room temperature. The plates were blocked (Superblock; Thermo Scientific) and serial dilutions of recombinant human (rh)VEGF165 or rhVEGF165b standards (ranging from 4 ng/ml to 16.25 pg/ml) were added, incubated alongside sample lysates, typically diluted 1:10. The plate was incubated for one hour at 37° C. with shaking, washed and incubated with 100 μl/well of either biotinylated goat anti-human VEGF (0.1 μg/ml; R & D systems) or mouse anti-human VEGF165b (0.25 μg/ml) for one further hour at 37° C. After washing, 100 μl/well of Horseradish Peroxidase (HRP)-conjugated streptavidin (1:200; R&D Systems) was added, and plates were left at room temperature for 20 minutes.
The plates were washed and colour change induced with substrate A and B (DY-999; R&D Systems) for 20 mins under light protection. The reaction was stopped by addition of 100 μl/well of 1M H2SO4 and the absorbance was read immediately in an ELISA plate reader (Dynex Technologies Opsys MR system plate reader) at 450 nm with a control reading at 570 nm. Revelation Quicklink 4.25 software was also used to calculate a standard curve from mean absorbance values of standards enabling the estimation of VEGF concentration for each sample.

SRPK1 = SRPK1 (Homo sapiens, UniProt Q96SB4); assay: In vitro kinase assay (Kinase-Glo), SRPK1; format: biochemical; details: for activity in the in vitro SRPK1 kinase assay: words
Chain of SRPK1 (Q96SB4 whole entry, species assumed): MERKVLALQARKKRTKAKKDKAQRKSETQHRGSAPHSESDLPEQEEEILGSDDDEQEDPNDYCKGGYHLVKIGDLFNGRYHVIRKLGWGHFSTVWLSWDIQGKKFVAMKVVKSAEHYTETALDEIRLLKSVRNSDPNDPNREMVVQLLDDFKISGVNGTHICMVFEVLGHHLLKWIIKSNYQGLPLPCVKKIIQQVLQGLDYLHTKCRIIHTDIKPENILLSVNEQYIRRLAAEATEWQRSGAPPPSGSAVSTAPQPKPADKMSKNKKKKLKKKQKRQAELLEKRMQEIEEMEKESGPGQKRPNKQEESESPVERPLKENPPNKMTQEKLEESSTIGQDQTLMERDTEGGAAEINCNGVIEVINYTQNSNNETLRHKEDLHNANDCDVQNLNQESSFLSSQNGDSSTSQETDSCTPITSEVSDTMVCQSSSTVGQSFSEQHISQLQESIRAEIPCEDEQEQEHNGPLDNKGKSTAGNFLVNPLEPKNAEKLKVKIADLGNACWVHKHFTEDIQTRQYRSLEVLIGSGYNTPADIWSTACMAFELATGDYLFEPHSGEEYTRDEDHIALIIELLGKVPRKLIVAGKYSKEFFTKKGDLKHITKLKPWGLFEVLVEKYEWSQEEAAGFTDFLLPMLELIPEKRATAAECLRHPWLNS

SRPK2 = SRPK2 (Homo sapiens, UniProt P78362); assay: In vitro kinase assay, SRPK2; format: biochemical
Chain of SRPK2 (P78362 whole entry, species assumed, canonical isoform): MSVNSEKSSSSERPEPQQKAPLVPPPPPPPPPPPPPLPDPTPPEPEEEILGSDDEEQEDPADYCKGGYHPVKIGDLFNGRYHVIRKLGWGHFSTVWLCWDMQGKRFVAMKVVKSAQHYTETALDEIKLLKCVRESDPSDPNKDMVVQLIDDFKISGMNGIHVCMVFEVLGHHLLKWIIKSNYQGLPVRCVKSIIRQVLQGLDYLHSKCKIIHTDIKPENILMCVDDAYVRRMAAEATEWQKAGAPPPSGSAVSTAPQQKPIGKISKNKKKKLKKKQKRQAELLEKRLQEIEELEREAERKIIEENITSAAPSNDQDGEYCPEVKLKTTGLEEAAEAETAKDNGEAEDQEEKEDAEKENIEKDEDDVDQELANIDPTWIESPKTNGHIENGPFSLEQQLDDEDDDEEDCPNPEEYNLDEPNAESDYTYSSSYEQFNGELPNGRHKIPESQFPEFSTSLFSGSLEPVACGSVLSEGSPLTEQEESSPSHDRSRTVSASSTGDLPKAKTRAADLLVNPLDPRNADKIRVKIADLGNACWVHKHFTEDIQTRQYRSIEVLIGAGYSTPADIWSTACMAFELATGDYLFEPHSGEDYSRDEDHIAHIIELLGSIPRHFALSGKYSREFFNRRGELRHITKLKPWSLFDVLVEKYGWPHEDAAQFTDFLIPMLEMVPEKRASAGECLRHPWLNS

[2] = tested on: VEGF165 mRNA isoforms in primary RPE cells; assay: RT-PCR for VEGF165 / VEGF165b mRNA in primary RPE cells; format: cell-based, human; details: 5 μM, 24 hours, primary RPE cells
Procedure: ID NO: 5)). […] Cells were treated with […]6 and 7 and the PCR repeated.

[3] = tested on: SRSF1 expression in ARPE-19 cells; assay: SRSF1 expression relative to tubulin in ARPE-19 cells; format: cell-based, human; details: 72 hours up to six days
Procedure: Protein samples (30-50 μg) were mixed with 1× sodium-dodecyl sulphate (SDS) loading buffer (100 mM Tris-HCl, 4% SDS, 20% glycerol, 0.2% (w/v) bromophenol blue, and 5% final concentration 2-mercaptoethanol, pH6.8). To denature the protein, samples were boiled for five minutes at 100° C.
Samples were subjected to polyacrylamide gel electrophoresis (PAGE) on a 12% SDS-PAGE gel at 90V in ice cold running buffer (25 mM Tris-HCl, 250 mM glycine, 0.1% SDS, pH8.3) for approximately 2.5 hours. The separated proteins were then electrophoretically blotted to a methanol-activated polyvinylidene fluoride (PVDF) membrane (Fisher Scientific) by wet transfer for two hours at 90V in transfer buffer (50 mM Tris-HCl, 38 mM glycine, 20% methanol, pH8.3). […] The washes were repeated and the bands were detected using the Enhanced Chemoluminiscence (ECL) SuperSignal West Femto Maximum Sensitivity Substrate kit (Pierce).
The SRPK inhibitors were tested in a series of in vitro assays to determine the effect of treatment on VEGF isoform expression. Initially the effect of compound treatment on SRPK1 and SRSF1 expression was determined.

laser-induced CNV [4] = assay: Laser-induced mouse CNV model, intravitreal injection; format: in vivo; details: for area of neovascular lesions, mouse laser-induced CNV model: discussion summary, route not stated; for neovascular area vs control injected eyes: two intravitreal injections of 10 ng
Procedure: (§1) Laser Lesion Induction Protocol
(§2) Six to eight week-old C57/B6 mice (B&K Laboratories) and adult Norway-Brown rats (Harlan Laboratories) were anaesthetized with an intraperitoneal injection of a mixture of 50 mg/kg ketamine and 0.5 mg/kg medetomidine. The pupils were dilated with 2.5% phenylephrine hydrochloride and 1% tropicamide. Four photocoagulation lesions were delivered with a krypton red laser (Mice: 250 mW, 0.01 s, 75 μm, Rats: 200 mW, 0.01 s, 75 μm, IRIS Medical 810 nm Oculight Slx laser) between the retinal vessels in a peripapillary distribution at a distance of 1-2 disc-diameters in each eye. Only laser lesions with a subretinal bubble at the time of treatment were included in the study. […] Animals were culled on either day 4 or day 14 and eyes were either unfixed for retinal dissection and protein extraction, or fixed and enucleated and choroids stained for isolectin-B4 and examined.

[5] = tested on: VEGF expression in retinal protein; assay: Retinal protein VEGF expression by western blot, rat CNV model; format: in vivo
Procedure: as §2
Retinal protein from SRPIN340 and saline treated eyes 4 days after initial treatment was assessed for VEGF expression by western blot. […] The expression of VEGFxxxb isoforms was investigated using mouse monoclonal 561 antibody (R&D systems).

in vivo = details: CD-1, mouse, topical or ocular, 5 ug
laser-induced CNV [6] = assay: Laser-induced rat CNV model, intravitreal injection; format: in vivo; details: intravitreal (SRPIN340 25 ng)
Procedure: as §1, §2
MVRL10 therefore appeared to be a relatively specific inhibitor of SRPK1. To determine whether SRPK1 inhibition could inhibit CNV in animal models we tested these compounds alongside each other in a laser-induced mouse CNV model. […]

[7] = tested on: VEGF165 mRNA in the retina; assay: VEGF165 mRNA expression in retinae after topical treatment; format: in vivo; details: mouse, day 14
[8] = Pharmacokinetics in the eye after intravitreal injection (mass spectrometry); format: in vivo, mouse; details: 20 ng intravitreal
laser-induced CNV [9] = assay: Laser-induced mouse CNV model, topical eye drops; format: in vivo
Procedure: as §1, §2
We performed a dose response trial investigating SRPIN340 topical eye drops. SRPIN340 was dissolved in a previously described drug delivery vehicle (Doukas et al., 2008) and administered twice daily. Fourteen days following laser insult choroids were fixed and flatmounted for isolectin staining and retinae were extracted for RNA analysis.

[10] = Pharmacokinetics in the eye after topical application (mass spectrometry)
CNV lesion area = details: cited from earlier work
neovascular AMD = details: 0.5 mg monthly, at one year; cited from earlier work
[11] = Table 1, read-out: IC50 (nM) for SRPK1

O=C(Nc1cc(C(F)(F)F)ccc1N1CCOCC1)c1cccnc1 [MVRL09, N-[2-(morpholin-4-yl)-5-(trifluoromethyl)phenyl]pyridine-3-carboxamide]
SRPK1 expression [1]: failed to affect SRPK1 expression
VEGF expression relative to total protein (VEGF protein expression): significantly reduced total VEGF expression
IC50 (SRPK1; FIG. 1B, read-out: IC50 SRPK1 kinase): > 10000 nM
inhibition of SRPK2 (SRPK2; words): no inhibition
expression of VEGF165b mRNA [2]: induced clear expression of VEGF165b
expression of VEGF165 mRNA relative to GAPDH [2]: reduced the expression VEGF65 at RNA level
expression of SRSF1 relative to a tubulin control [3]: reduced expression of SRSF1

CN(C)CCN1CCN(c2ccc(C(F)(F)F)cc2NC(=O)c2ccc(-c3cccnc3)o2)CC1 [SPHINX6]
IC50 (SRPK1; FIG. 7, read-out: SRPK1 inhibition IC50): 173 nM
IC50 (SRPK1; [11]): 177 nM

CN(C)CCNc1ccc(C(F)(F)F)cc1NC(=O)c1ccc(-c2cccnc2)o1 [SPHINX8]
IC50 (SRPK1; [11]): 9310 nM
activity in the in vitro SRPK1 kinase assay (SRPK1): no activity

O=C(Nc1cc(C(F)(F)F)ccc1NCc1cccnc1)c1ccc(-c2cccnc2)o1 [SPHINX9]
IC50 (SRPK1; [11]): > 10000 nM
activity in the in vitro SRPK1 kinase assay (SRPK1): no activity

O=C(Nc1cc(C(F)(F)F)ccc1NCc1cccnc1)c1ccc(-c2ccncc2)o1 [SPHINX10]
IC50 (SRPK1; [11]): > 10000 nM
activity in the in vitro SRPK1 kinase assay (SRPK1): no activity

CN1CCN(c2ccc(C(F)(F)F)cc2NC(=O)c2ccc(-c3cccnc3)o2)CC1 [SPHINX12]
IC50 (SRPK1; [11]): 367 nM

CN1CCN(c2ccc(C(F)(F)F)cc2NC(=O)c2ccc(C#N)o2)CC1 [SPHINX14]
IC50 (SRPK1; [11]): 1270 nM

Cc1ccc(C(=O)Nc2cc(C(F)(F)F)ccc2N2CCOCC2)o1 [SPHINX, 5-methyl-N-[2-(morpholin-4-yl)-5-(trifluoromethyl)phenyl]furan-2-carboxamide]
SRPK1 expression [1]: did appear to reduce SRPK1 expression
area of neovascular lesions, mouse laser-induced CNV model (laser-induced CNV [4]): achieving significance
neovascular area vs control injected eyes (laser-induced CNV [4]; mouse): significantly reduced neovascular area
preference for SRPK1 over SRPK2 (SRPK2): greater than 10 fold
inhibition at 10 µM (SRPK2; at 10 μM): 10%

O=C(Nc1cc(C(F)(F)F)ccc1N1CCCCC1)c1ccncc1 [SRPIN340, N-[2-(1-piperidinyl)-5-(trifluoromethyl)phenyl]isonicotinamide]
ratio of pro to anti-VEGF isoforms in retinal protein ([5]; rat, 4 days after initial treatment): No difference in the ratio of pro to anti-VEGF isoforms
VEGF expression in retinal protein ([5]; rat, 4 days after initial treatment, western blot): decrease in the expression of VEGF; also recorded: reduced CNV area and total VEGF protein expression
expression of VEGFxxxb isoforms in rat retinae ([5]; vs saline controls): no change in the expression of VEGFxxxb isoforms
half-life (in vivo): 0.583 h
SRPK1 expression [1]: failed to affect SRPK1 expression
VEGF expression relative to total protein (VEGF protein expression): significantly reduced total VEGF expression
area of neovascular lesions, mouse laser-induced CNV model (laser-induced CNV [4]): achieving significance
EC50 on CNV area (laser-induced CNV [4]; mouse, intravitreal, total injected dose): 1.28 ng
neovascular area vs control injected eyes (laser-induced CNV [4]; mouse): significantly reduced neovascular area
CNV area vs saline injected controls (laser-induced CNV [6]): significantly reduced the CNV area
VEGF165 mRNA expression in the retinae [7]: reduced; also recorded: near significant reduction in VEGF165
concentration in the eye ([8]; over a 2 day period): > 10 ng/mL
half-life ([8]; mouse, eye tissue, 1-48 hours curve fit, read-out: sustained half-life in the eye (converted)): 22 h
IC50 (SRPK1): 960 nM
IC50 (SRPK2): 7.4 µM
CNV area, 0.01% solution (laser-induced CNV [9]; 0.01% solution in gel drug delivery vehicle, topical): significant inhibition of CNV area
EC50 (laser-induced CNV [9]; Mus musculus, topical, read-out: EC50 on CNV, topical): 3.19 µg/mL (≈ 9.12 µM)
CNV formation, eye drop (laser-induced CNV [9]; mouse, topical): significantly inhibited CNV formation; also recorded: significantly suppressed CNV
EC50 on CNV lesion area, topical drops (laser-induced CNV [9]; mouse, twice daily eye drops, total dose): 640 ng
expression of VEGF165 mRNA relative to GAPDH [2]: reduced the expression VEGF65 at RNA level
detection in the eye ([10]; 48 hours after a single topical administration): still detectable
systemic detection ([10]; after a single topical administration): not detected systemically
fraction of total applied dose detected in the eye ([10]; single topical 5 μg, after 1 hour, whole eye): 3.5%
fraction of applied dose detected in the posterior chamber ([10]; single topical 5 μg, after 12 hours): 0.15%
expression of SRSF1 relative to a tubulin control [3]: reduced expression of SRSF1

Cc1cc(-c2cc(OC(=O)c3ccccc3)ccc2Cl)cc2nnc(Nc3ccc(OCCN4CCCC4)cc3)nc12 [TG100801]
CNV lesion area (CNV lesion area; twice daily topical 0.6%): not
CNV lesion area (CNV lesion area; twice daily topical 1%): significantly reduced CNV lesion area

B1: Lucentis: humanized anti-VEGF antibody fragment, FDA approved for the treatment of neovascular AMD (antibody, chains of the INN, looked up, V domains shown)
VH: EVQLVESGGGLVQPGGSLRLSCAASGYDFTHYGMNWVRQAPGKGLEWVGWINTYTGEPTYAADFKRRFTFSLDTSKSTAYLQMNSLRAEDTAVYYCAKYPYYYGTSHWYFDVWGQGTLVTVSS
VL: DIQLTQSPSSLSASVGDRVTITCSASQDISNYLNWYQQKPGKAPKVLIYFTSSLHSGVPSRFSGSGSGTDFTLTISSLQPEDFATYYCQQYSTVPWTFGQGTKVEIK
modifications: Fab
notes: humanized anti-VEGF antibody fragment, FDA approved for the treatment of neovascular AMD
patients who maintained visual acuity (loss of <15 letters) (neovascular AMD): approximately 95%
patients with improved vision (gain of ≥15 letters) (neovascular AMD): ≤ 40%
